Key:
[1] = conversion of crystalline form B into form C on exposure to humidity or aqueous medium; format: physicochemical
Text: In another aspect of the invention, crystalline form C of cefdinir can be obtained by conversion of the crystalline form B of cefdinir, obtainable as described in US 2003/0204082 in Example 1, into crystalline form C of cefdinir. Cefdinir form B is in the form of a hydrate.
The equilibrating procedure of step a′) is preferably performed at a relative humidity of about 63% to about 75% , more preferably of about 65% to about 70%, such as of at 65% to 70%. Said equilibration may be performed in a gaseous atmosphere being e.g. air or nitrogen, preferably air having the above mentioned relative humidity. Above about 63% relative humidity, for example cefdinir form B crystals obtainable as described above convert to form C crystals. Form C crystals—once formed—are stable above a relative humidity of at least 45%.

[2] = stability of crystalline form at environmental relative humidity; format: physicochemical; details: form maintained as trihydrate

SMILES | relative humidity above which crystals convert to form C ([1]; equilibration in gaseous atmosphere (air or nitrogen)) | time for conversion into crystalline form C ([1]; exposure of pure crystalline form B to a relative humidity of at least about 65%) | time for conversion into crystalline form C ([1]; exposure of pure form B crystals to an aqueous suspending medium, preferably water) | relative humidity of environmental conditions at which the crystal form is stable [2]
C=CC1=C(C(=O)O)N2C(=O)C(NC(=O)C(=NO)c3csc(N)n3)[C@H]2SC1 (stereo partly shown) [crystalline form B of cefdinir, 7-[2-(2-aminothiazol-4-yl)-2-hydroxyiminoacetamido]-3-vinyl-3-cephem-4-carboxylic acid] | Above 63% | within minutes | within seconds | 
C=CC1=C(C(=O)O)N2C(=O)C(NC(=O)C(=NO)c3csc(N)n3)[C@H]2SC1.O.O.O (stereo partly shown) [crystalline form C of cefdinir, 7-[2-(2-aminothiazol-4-yl)-2-hydroxyiminoacetamido]-3-vinyl-3-cephem-4-carboxylic acid trihydrate] |  |  |  | at least 45%
